Laboratory results taken from patent US20070232691A1, “Use of ladostigil for the treatment of schizophrenia” (priority 2006, published 2007).
Entries after “also recorded” stand apart in the source; their conditions may differ.

Tested on: male Wistar rats
Experiment: MK-801-induced persistent latent inhibition (LI), thirst motivated conditioned emotional response procedure
Type: in vivo, rat
Source text: Latent inhibition (“LI”) is the process whereby pre-exposure to a stimulus retards conditioning to this stimulus when it is subsequently paired with reinforcement, and it has been used extensively to model cognitive impairments in schizophrenia. […] Briefly, amphetamine disrupts LI in rats and normal humans, and this is paralleled by disrupted LI in acute schizophrenia patients. Amphetamine-induced LI disruption is reversed by both typical and atypical APDs.
The rats used were male Wistar rats approximately five months old, weighing 350 g to 500 g.
Rats were tested in Campden Instruments rodent test chambers with a retractable bottle. When the bottle was not present, the hole was covered by a metal lid. Licks were detected by a Campden Instruments drinkometer. The preexposed to-be-conditioned stimulus was a 10 sec, 80 dB, 2.8 kHz tone produced by a Sonalert module. Shock was supplied through the floor by a Campden Instruments shock generator and shock scrambler set at 0.5 mA and 1 sec duration. Equipment programming and data recording were computer controlled.
LI was measured in a thirst motivated conditioned emotional response (“CER”) procedure by comparing the suppression of drinking to a tone previously paired with a foot shock in rats that received non-reinforced exposure to the tone prior to conditioning (preexposed) and in rats for whom the tone was novel (non-preexposed).
Prior to the beginning of each LI experiment, rats were handled for about 2 min daily for 8 days. On day 9, a 23 h water restriction schedule was initiated and continued throughout the experiment. After 5 days of deprivation (days 9-13), rats were trained to drink in the experimental chambers for the next 5 days (days 14-18), for 20 min during the 1st day and for 15 min per day during each of the next 4 days. Water in the test apparatus was given in addition to the daily ration of 1 h given in the home cages. The LI procedure was conducted on days 19-22 and consisted of the following stages:
With the bottle removed, the preexposed (“PE”) rats received 40 tone presentations with an inter-stimulus interval of 50 sec. The nonpreexposed (“NPE”) rats were confined to the chamber for an identical period of time without receiving the tone.
With the bottle removed, each rat received 5 tone-shock pairings given 5 min apart. Shock immediately followed tone termination. The first tone-shock pairing was given 5 min after the start of the session. After the last pairing, rats were left in the experimental chamber for an additional 5 min. […]
Each rat was placed in the chamber and allowed to drink from the bottle. […] The following times were recorded: Time to first lick, time to complete licks 1-50, time to complete licks 51-75 (before tone onset) and time to complete licks 76-100 (after tone onset). […]

Molecule	LI (difference between preexposed and nonpreexposed groups in log times to complete licks 76-100) (MK-801 0.05 mg/kg i.p. 30 min before conditioning, vehicle pretreatment, 40 preexposures, 5 conditioning trials)	LI / reversal of abnormally persistent LI in MK-801-treated rats (25 mg/kg ladostigil tartrate p.o. chronic + MK-801 0.05 mg/kg i.p.)	LI (difference between preexposed and nonpreexposed groups in log times to complete licks 76-100) (37.5 mg/kg ladostigil tartrate p.o. chronic + MK-801 0.05 mg/kg i.p.)	Effect on LI of drug on its own (ladostigil tartrate 25 mg/kg and 37.5 mg/kg p.o. chronic + saline (no MK-801))
C[C@]12N[C@H](Cc3ccccc31)c1ccccc12 [MK-801, dizocilpine, reference compound]	significant difference between the preexposed and nonpreexposed groups, namely, LI; also recorded: persisted in showing LI			
R(+)-6-(N-methyl, N-ethyl-carbamoyloxy)-N′-propargyl-1-aminoindan ½ tartrate [ladostigil tartrate]		reversed abnormally persistent LI	significant difference between the preexposed and nonpreexposed groups, namely, LI	had no effect
